Laboratory results taken from US20110117120A1, “Plasmodium falciparum HLA class I restricted T-cell epitopes” (priority 2009, published 2011).
Entries after “also recorded” stand apart in the source; their conditions may differ.

Legend:
Type in all cases: cell-based, human
PBMC [1] = experiment: ELISpot IFN-γ assay with PBMC of AdPfCA / DNA-primed volunteers (Example 2); conditions: 12 wk post challenge
From the text: To more clearly define immunological active regions of AMA1, PBMCs were isolated from AMA1 immunized volunteers. Two groups of volunteers, i.e., Gp 1 (from example 1, above) and Gp2, received 2×10^10 particle units of AdPfCA (NMRC-M3V-Ad-PfCA, NMRC+Multi-antigen Multi-stage, Malaria Vaccine+Adenovector+P. falciparum CSP & AMA1 antigens). The vaccine is a combination of two separate recombinant Ad5 constructs, one expressing full length CSP and the other expressing full length apical membrane antigen 1 (AMA1). AdPfCA expressed the AMA1 regions A1 through A12. Twenty-eight (28) days later, PBMC's were collected.
In a third group (termed preCh in FIG. 7 and FIG. 8), fifteen volunteers were primed with three doses (2 mg/dose) with one month between doses. Sixteen weeks after the final DNA priming dose, each volunteer received 2×10^10 particle units of AdPfCA. PBMC's were collected on day 22-23 after receiving AdPfCA. The region of the AMA gene expressed by the DNA expression plasmid is also illustrated in FIG. 6. The DNA vaccine expressed approximately half of the A1 region of AMA1, the entire regions of A2 through A10 and a portion of A11. As in Gp 1 and Gp 2, AdPfCA expressed the AMA1 regions A1 through A12.
(§1) The stimulation of circulating antigen-specific T cell lymphocytes was evaluated by measurement of γ-IFN induction by ELISPOT. The ELISpot assay was conducted using thawed cryopreserved PBMC at 200 K cells per well. Pre-challenge cells were taken at day 21 and day 22 post AdPfCA vaccination. Cells were suspended in […] complete medium and were stimulated with AMA1 peptides suspended in […] of complete medium. Peptide concentrations used in assays was 10 μg/ml of each peptide tested. Cultures were incubated for 36 h at 37° C., 5% CO2. Depending on availability of cells, each PBMC sample was assayed in duplicate, triplicate, or quadruplicate and the number of IFN-γ-secreting cells recognized as spot-forming cells (SFC) was enumerated using an automated ELISpot reader. In duplicate assays, all values were used in analysis. For triplicate or quadruplicate assays, outliers were rejected if any single value contributed more than 50% of the standard deviation of the triplicate (or quadruplicate) and if its value was three-fold greater or less than the average of the remaining two (or three) values. The mean spot forming cells (SFCs) obtained in negative control wells were subtracted from the value of each test well from the same sample. Negative counts generated by this background subtraction were converted to zero. The mean spot number of the test sample was then calculated and expressed as SFC/million PBMCs. Values obtained with pre-vaccinated samples were subtracted from the post-vaccination values.
In a further study, volunteers were immunized with AdCA. […]

[2] = test system: CD4+ and CD8+ T cells of PBMC; experiment: Intracellular cytokine staining (ICS) of CD4+ and CD8+ T cells; conditions: v001 and v005; FIG. 3
Protocol: ICS was performed on PBMCs with costimulatory antibodies anti-CD28 and […] (obtained from BD Bioscience™, San Jose, Calif.). The peptides were used at the same concentrations as in ELISpot assays. Stimulants were added t cells and incubated at 37° C. with 5% CO2 for 2 hr. Golgi Plug™ (Brefeldin A) (BD Bioscience™, San Jose, Calif.) was added at a final concentration of 0.6 μL/mL and incubated at 37° C. with 5% CO2 overnight. Cells were stained with anti-CD3 (Alexa Fluor 700™), anti-CD4 (PerCP™), and anti-CD8 Pacific Blue™ (obtained from BD Bioscience™, San Jose, Calif.). and 1 μg/mL of live/dead fixable blue dye, incubated and washed. Cells were permeabilized with Cytofix/Cytoperm™ solution (obtained from BD Bioscience™, San Jose, Calif.), incubated and washed. Cells were stained intracellularly with anti-CD3 ([…]), anti-CD4 (PerCP™), and anti-CD8 Pacific Blue™, anti-IFN-γ FITC, anti-TNF PE, and anti-IL2 APC, incubated and washed. Cells were resuspended and the entire available sample was acquired by flowcytometry. The gating strategy included progressively measuring total cells; viable cells only; lymphocytes; T cells; CD4^+ CD8^+ populations; and a specific cell type expressing a specific cytokine. Histograms were used to determine the total production of IFN-γ, IL2, and TNF for the CD4^+ and CD8^+ populations. Boolean gates were used to determine cells producing combinations of cytokines.
In these studies, T cells containing IFN-γ, IL2, or TNFα, were gated into different subsets: IFN-γ+, IL2+, TNFα−; IFN-γ+, IL2-, TNFα+; IFN-γ+, IL2+, TNFα+; or IFN-γ+, IL2−, TNFα− T cells, and stimulated with the predicted epitopes and their parent peptide pool. The frequency of CD8^+ T cells producing total IFN-γ was far greater than CD4^+ T cell responses (FIG. 1, upper panel), which were extremely low.

[3] = test system: CD8+ or CD4+ T-cell depleted PBMC; experiment: ELISpot IFN-γ assay after CD8+ or CD4+ T-cell depletion (Example 2, Table 6); conditions: for CD4^+ depletion % change / CD8^+ Depletion % change / CD4^+ depletion, test / CD8^+ Depletion, test / CD4^+ depletion, control / CD8^+ Depletion, control: Vol. 1550-11; for CD4^+ depletion, test: CD4+ depleted; for CD8^+ Depletion, test: CD8+ depleted
Protocol: PBMC population depletion was conducted using anti-human CD4+ and anti-CD8^+ coated Dynabeads™ M-450 (Dynal, Great Neck, N.Y.) following the manufacturer's instructions. Mock depletion was done with Dynabeads coated with Sheep anti-mouse IgG. Flow cytometry confirmed that T-cell subset depletions were >99% in all experiments. The data is presented as the % effect (decrease) in activity after T cell subset depletion. […]
The results of this study, summarized in Table 6, identified other CD8^+ epitopes, associated specific HLA class I genes.

PBMC [4] = experiment: ELISpot IFN-γ assay with PBMC of Ad5-PfCA immunized volunteers (Example 1); conditions: threshold 40 SFC/million
Protocol: In order to assess the pools for their ability to induce T-cell responses, specifically CD 8^+ responses, PBMC, 1 month post immunization were used, from the five volunteers in Table 1, in ELISpot assays. In these studies, IFN-γ activity was measured in response to exposure to the peptide pools. The assays were conducted essentially as described by Wang, et al., Proc. Natl. Acad. Sci. (U.S.A.), 98: 10817-22.
as §1

KSHGKGYNW (listed as Plasmodium falciparum)
Unfract. PBMC (PBMC [1]; Vol. 1550-10): 159 SFC/10^6 | Unfract. PBMC (PBMC [1]; Vol. 1550-18): 181 SFC/10^6

YKSHGKGYNW (listed as Plasmodium falciparum)
Unfract. PBMC (PBMC [1]; Vol. 1550-10): 144 SFC/10^6 | Unfract. PBMC (PBMC [1]; Vol. 1550-18): 271 SFC/10^6

REHPKEYEYPLHQEH [Ap1-12]
CD4^+ versus CD8^+ T cell IFN-γ response (ICS and ELISpot depletion, words) [2]: strongly recognized by CD8^+ T cells; also recorded: induced both CD4^+ and CD8^+ T cell responses | CD4^+ depletion % change ([3]; 4 wk post challenge): 78% | CD8^+ Depletion % change ([3]; 4 wk post challenge): 70% | CD4^+ depletion, test ([3]; 4 wk post challenge): 28 SFC/10^6 | CD8^+ Depletion, test ([3]; 4 wk post challenge): 37 SFC/10^6 | CD4^+ depletion, control ([3]; 4 wk post challenge): 126 SFC/10^6 | CD8^+ Depletion, control ([3]; 4 wk post challenge): 126 SFC/10^6 | CD4^+ depletion % change ([3]; Pre-challenge): 59% | CD8^+ Depletion % change ([3]; Pre-challenge): 49% | CD4^+ depletion, test ([3]; Pre-challenge): 67 SFC/10^6 | CD8^+ Depletion, test ([3]; Pre-challenge): 83 SFC/10^6 | CD4^+ depletion, control ([3]; Pre-challenge): 161 SFC/10^6 | CD8^+ Depletion, control ([3]; Pre-challenge): 161 SFC/10^6 | reduction in ELISpot response after depletion of CD8^+ T-cells ([3]; summary of Table 6): 49-66% | IFN-γ ELISpot activity of individual 15-mer peptide (PBMC [4]; Volunteer 002): 66 SFC/10^6 | IFN-γ ELISpot activity of individual 15-mer peptide (PBMC [4]; Volunteer 005): 118 SFC/10^6
